The source made the active and inactive calls. No cut-off for these calls is given here.
Columns and labels:
[1] = target: T1, G-protein coupled bile acid receptor 1 (Homo sapiens, UniProt Q8TDU6); test: Agonist activity in human GPBAR1 assessed as increase in intracellular cAMP level; type: functional, cell-based
T1 sequence (Q8TDU6 whole entry): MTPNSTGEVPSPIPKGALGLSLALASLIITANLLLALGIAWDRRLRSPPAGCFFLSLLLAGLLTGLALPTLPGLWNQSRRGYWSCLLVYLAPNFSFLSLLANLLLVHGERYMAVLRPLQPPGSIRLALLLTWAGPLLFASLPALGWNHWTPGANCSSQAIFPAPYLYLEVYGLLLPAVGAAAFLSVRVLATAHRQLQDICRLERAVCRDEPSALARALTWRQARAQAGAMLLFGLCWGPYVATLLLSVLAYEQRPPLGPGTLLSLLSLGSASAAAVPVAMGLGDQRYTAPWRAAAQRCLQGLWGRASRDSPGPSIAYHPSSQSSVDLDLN

[2] = Clearance in male C57BL/6 mouse at 2 mg/kg, iv measured by LC-MS/MS analysis; type: ADME, organism-based; settings: in vivo
[3] = test system: Mus musculus; test: Antifibrotic activity in C57BL/6 mouse model of CCI4-induced liver fibrosis assessed as decrease in serum ALT level at 1 mg/kg, po administered once daily for 4 weeks; type: functional, organism-based
[4] = Mutagenecity in Salmonella typhimurium TA102 measured by Ames test; type: toxicity; settings: salmonella enterica subsp. enterica serovar typhimurium
[5] = target: T2, G-protein coupled bile acid receptor 1 (Homo sapiens) (UniProt Q8TDU6); test: Agonist activity in human GPBAR1 assessed as increase in intracellular cAMP level relative to control; type: functional, cell-based
T2 sequence (whole entry): T1 sequence (Q8TDU6 whole entry)

[6] = Drug recovery in brain of male Sprague-Dawley rat at 4.5 mg/kg, po administered as C14-lableled compound and assessed as radioactivity and measured at 24 hrs; type: ADME, organism-based; settings: in vivo, BLD = below limit of detection
[7] = Drug recovery in brain of male Sprague-Dawley rat at 4.5 mg/kg, po administered as C14-lableled compound and assessed as radioactivity and measured at 0.25 hrs; type: ADME, organism-based; settings: in vivo, BLD = below limit of detection
[8] = Drug recovery in heart of male Sprague-Dawley rat at 4.5 mg/kg, po administered as C14-lableled compound and assessed as radioactivity and measured at 1 hr; type: ADME, organism-based; settings: in vivo
[9] = Drug recovery in ileum of male Sprague-Dawley rat at 4.5 mg/kg, po administered as C14-lableled compound and assessed as radioactivity and measured at 0.25 hrs; type: ADME, organism-based; settings: in vivo
[10] = Mutagenecity in Salmonella typhimurium TA97A measured by Ames test; type: toxicity; settings: salmonella enterica subsp. enterica serovar typhimurium
[11] = Drug metabolism in feces of Sprague-Dawley rat assessed as production of toxic metabolites at 4.5 mg/kg, po administered as C14-lableled compound with single dose; type: ADME, organism-based; settings: in vivo
[12] = Drug recovery in skin of male Sprague-Dawley rat at 4.5 mg/kg, po administered as C14-lableled compound and assessed as radioactivity and measured at 1 hr; type: ADME, organism-based, Skin of body; settings: in vivo

O=C(O)c1ccc2c(c1)Oc1ccc(OCc3c(-c4c(Cl)cccc4Cl)noc3C3CC3)nc1C1(CC1)C2
EC50 [1]: > 10 µM | clearance [2]: 160 mL/min/kg | Activity [3]: Active | Activity [4]: Non-Toxic | Activity [5]: 29% | Drug recovery [6]: Bld | Drug recovery [7]: Bld | Drug recovery [8]: 341 ngequiv/g | Drug recovery [9]: 606 ngequiv/g | Activity [10]: Non-Toxic | Drug metabolism [11]: Metabolite_Notdetected | Drug recovery [12]: 117 ngequiv/g

Reference: ChEMBL document CHEMBL5154690, “Discovery of a tricyclic farnesoid X receptor agonist HEC96719, a clinical candidate for treatment of non-alcoholic steatohepatitis” (Eur J Med Chem, 2022)
